Test results taken from patent US20080269250A1, “Pyrrolidine and Piperidine Acetylene Derivatives for Use as Mglur5 Antagonists” (priority 2005, published 2008).

Tests used:
hmGluR5 = target: T1, hmGluR5 (Homo sapiens, UniProt P41594); assay: inhibition of quinqualate-induced inositol phosphate turnover in hmGluR5 expressing cells; assay type: cell-based; settings: read-out: IC50 concentration, inhibition of quinqualate-induced inositol phosphate turnover
T1 construct: expressed in transfected cells
T1 sequence (P41594 21-1180 isoform P41594-2 limits assumed): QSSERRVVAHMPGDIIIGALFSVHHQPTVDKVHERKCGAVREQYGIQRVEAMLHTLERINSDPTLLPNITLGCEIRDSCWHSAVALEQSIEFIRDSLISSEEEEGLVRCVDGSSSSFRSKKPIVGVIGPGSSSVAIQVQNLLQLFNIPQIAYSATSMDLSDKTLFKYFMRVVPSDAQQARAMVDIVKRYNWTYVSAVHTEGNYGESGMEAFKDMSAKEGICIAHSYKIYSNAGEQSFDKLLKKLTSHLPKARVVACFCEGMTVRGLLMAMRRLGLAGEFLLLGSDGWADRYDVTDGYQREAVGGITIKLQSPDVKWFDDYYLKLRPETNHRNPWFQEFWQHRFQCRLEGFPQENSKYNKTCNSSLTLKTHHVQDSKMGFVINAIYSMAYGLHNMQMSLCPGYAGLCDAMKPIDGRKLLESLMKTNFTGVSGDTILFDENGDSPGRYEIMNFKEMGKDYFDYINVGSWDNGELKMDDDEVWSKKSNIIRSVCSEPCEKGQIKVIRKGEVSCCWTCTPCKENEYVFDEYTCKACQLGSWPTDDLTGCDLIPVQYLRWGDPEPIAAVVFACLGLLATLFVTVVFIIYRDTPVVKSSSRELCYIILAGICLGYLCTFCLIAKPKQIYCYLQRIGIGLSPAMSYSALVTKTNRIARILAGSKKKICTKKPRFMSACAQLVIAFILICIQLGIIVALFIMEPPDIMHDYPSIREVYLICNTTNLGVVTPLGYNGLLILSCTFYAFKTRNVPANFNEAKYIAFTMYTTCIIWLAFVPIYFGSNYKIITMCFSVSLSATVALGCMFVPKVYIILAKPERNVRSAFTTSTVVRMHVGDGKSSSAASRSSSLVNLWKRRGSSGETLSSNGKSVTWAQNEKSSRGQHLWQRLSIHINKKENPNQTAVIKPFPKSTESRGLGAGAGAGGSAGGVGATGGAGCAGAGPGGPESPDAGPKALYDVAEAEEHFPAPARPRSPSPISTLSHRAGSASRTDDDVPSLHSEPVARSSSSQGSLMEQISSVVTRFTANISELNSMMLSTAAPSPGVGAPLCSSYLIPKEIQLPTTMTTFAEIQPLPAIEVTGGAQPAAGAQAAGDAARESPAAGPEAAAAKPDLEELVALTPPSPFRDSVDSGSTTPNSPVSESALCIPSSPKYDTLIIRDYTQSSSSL
Text: This can be determined in vitro for example at recombinant human metabotropic glutamate receptors, especially PLC-coupled subtypes thereof such as mGluRs, using different procedures like, for example, measurement of the inhibition of the agonist induced elevation of intracellular Ca^2+ concentration in accordance with L. P. Daggett et al., Neuropharm. Vol. 34, pages 871-886 (1995), P. J. Flor et al., J. Neurochem. Vol. 67, pages 58-63 (1996) or by determination to what extent the agonist induced elevation of the inositol phosphate turnover is inhibited as described by T. Knoepfel et al., Eur. J. Pharmacol. Vol. 288, pages 389-392 (1994), L. P. Daggett et al., Neuropharm. Vol. […] and references cited therein. Isolation and expression of human mGluR subtypes are described in U.S. Pat. No. 5,521,297. Selected agents of the invention show IC50 values for the inhibition of the agonist (e.g. glutamate or quisqualate) induced elevation of intracellular Ca2+ concentration or the agonist (e.g. glutamate or quisqualate) induced inositol phosphate turnover, measured in recombinant cells expressing hmGluR5a of about 1 nM to about 50 μM.

mice = assay: stress-induced hyperthermia in mice; assay type: in vivo; settings: control 0.93±0.1° C.
Experimental: A. Lecci et al., Psychopharmacol 101, 255-261]. At doses of about 0.1 to about 30 mg/kg p.o., selected agents of the invention reverse the stress-induced hyperthermia.

melting point [°C]	SMILES	further results
93 to 94	O=C(c1ccoc1)N1CCC(O)(C#Cc2cccc(Cl)c2)CC1 [Example 1, [4-(3-Chloro-phenylethynyl)-4-hydroxy-piperidin-1-yl]-furan-3-yl-methanone]	
134 to 136	CN1CCC(C(=O)N2CCC(O)(C#Cc3cccc(Cl)c3)CC2)CC1 [Example 1.2, [4-(3-Chloro-phenylethynyl)-4-hydroxy-piperidin-1-yl]-(1-methyl-piperidin-4-yl)-methanone]	
132 to 135	O=C(c1ccno1)N1CCC(O)(C#Cc2cccc(Cl)c2)CC1 [Example 1.3, [4-(3-Chloro-phenylethynyl)-4-hydroxy-piperidin-1-yl]-isoxazol-5-yl-methanone]	
75 to 80	O=C(c1ncc[nH]1)N1CCC(O)(C#Cc2cccc(Cl)c2)CC1 [Example 1.4, [4-(3-Chloro-phenylethynyl)-4-hydroxy-piperidin-1-yl]-(1H-imidazol-2-yl)-methanone]	
	O=C(c1cc2ccccc2o1)N1CCC(O)(C#Cc2cccc(Cl)c2)CC1 [Example 1.8, Benzofuran-2-yl-[4-(3-chloro-phenyl-ethynyl)-4-hydroxy-piperidin-1-yl]-methanone]	IC50 (hmGluR5): 290 nM; stress-induced hyperthermia (mice; 10 mg/kg p.o., p<0.01): 0.44±0.08 °C; stress-induced hyperthermia (mice; 30 mg/kg p.o., p<0.05): 0.46±0.14 °C; stress-induced hyperthermia (mice; 100 mg/kg p.o., p<0.001): 0.24±0.12 °C
67 to 81	O=C(c1ccoc1)N1CCC(O)(C#Cc2cccc(F)c2)CC1 [Example 1.31, [4-(3-Fluoro-phenylethynyl)-4-hydroxy-piperidin-1-yl]-furan-3-yl-methanone]	
124 to 134	O=C(c1ccoc1)N1CCC(O)(C#Cc2ccc(Cl)cc2)CC1 [Example 1.34, [4-(4-Chloro-phenylethynyl)-4-hydroxy-piperidin-1-yl]-furan-3-yl-methanone]	
80 to 94	O=C(c1ccoc1)N1CCC(O)(C#Cc2ccc(F)cc2F)CC1 [Example 1.35, [4-(2,4-Difluoro-phenylethynyl)-4-hydroxy-piperidin-1-yl]-furan-3-yl-methanone]	
83 to 85	COc1cccc(C#CC2(O)CCN(C(=O)c3ccoc3)CC2)c1 [Example 1.36, Furan-3-yl-[4-hydroxy-4-(3-methoxy-phenylethynyl)-piperidin-1-yl]-methanone]	
110 to 114	Cc1ccc(C)c(C#CC2(O)CCN(C(=O)c3ccoc3)CC2)c1 [Example 1.37, [4-(2,5-Dimethyl-phenylethynyl)-4-hydroxy-piperidin-1-yl]-furan-3-yl-methanone]	
171 to 173	O=C(c1ccncc1)N1CCC(O)(C#Cc2cccc(Cl)c2)CC1 [Example 1.52, [4-(3-Chloro-phenylethynyl)-4-hydroxy-piperidin-1-yl]-pyridin-4-yl-methanone]	
114 to 119	CC(C)c1ccc(N2CCC(O)(C#Cc3cccc(Cl)c3)CC2)cc1 [Example 1.128, 4-(3-Chloro-phenylethynyl)-1-(4-isopropyl-phenyl)-piperidin-4-ol]	
128 to 130	Cc1ccccc1N1CCC(O)(C#Cc2cccc(Cl)c2)CC1 [Example 1.137, 4-(3-Chloro-phenylethynyl)-1-o-tolyl-piperidin-4-ol]	
124 to 128	OC1(C#Cc2cccc(Cl)c2)CCN(c2cccnc2)CC1 [Example 1.138, 4-(3-Chloro-phenylethynyl)-3,4,5,6-tetrahydro-2H-[1,3]bipyridinyl-4-ol]	
68 to 70	OC1(C#Cc2cccc(Cl)c2)CCN(c2cccc3nccnc23)CC1 [Example 1.139, 4-(3-Chloro-phenylethynyl)-1-quinoxalin-5-yl-piperidin-4-ol]	
154 to 157	OC1(C#Cc2cccc(Cl)c2)CCN(c2nc3ccccc3s2)CC1 [Example 1.144, 1-Benzothiazol-2-yl-4-(3-chloro-phenylethynyl)-piperidin-4-ol]	
134 to 138	Cc1cccnc1N1CCC(O)(C#Cc2cccc(Cl)c2)CC1 [Example 1.148, 4-(3-Chloro-phenylethynyl)-3′-methyl-3,4,5,6-tetrahydro-2H-[1,2′]bipyridinyl-4-ol]	
139 to 142	OC1(C#Cc2cccc(Cl)c2)CCN(c2ccnc(Cl)c2)CC1 [Example 1.151, 2′-Chloro-4-(3-chloro-phenylethynyl)-3,4,5,6-tetrahydro-2H-[1,4′]bipyridinyl-4-ol]	
173 to 177	OC1(C#Cc2cccc(Cl)c2)CCN(c2cncnc2)CC1 [Example 1.162, 4-(3-Chloro-phenylethynyl)-1-pyrimidin-5-yl-piperidin-4-ol]	
98 to 102	Cc1ncccc1N1CCC(O)(C#Cc2cccc(Cl)c2)CC1 [Example 1.164, 4-(3-Chloro-phenylethynyl)-2′-methyl-3,4,5,6-tetrahydro-2H-[1,3′]-bipyridinyl-4-ol]	
153 to 155	O=C(C1Oc2ccccc2O1)N1CCC(O)(C#Cc2cccc(Cl)c2)C1 (stereo not drawn) [Example 3.11, Benzo[1,3]dioxol-2-yl-[3-(3-chloro-phenylethynyl)-3-hydroxy-pyrrolidin-1-yl]-methanone]	
